One data set relates to kidney. As to conditions: cited from earlier work.
For data set [1] the following is noted: cited from earlier work.
For data set [2] the following is noted: cited from earlier work. This is another data set of the same source.
The conditions of data set [3]: human, cited from earlier work.
For data set [4] the following is noted: cited from earlier work. The source holds these as a separate data set.
[5] abbreviates: 100 mg/kg oral, mice, PBPK model estimate, ref Chiu et al 2011.
Where [6] appears, read: 300 mg/kg oral, mice C57BL/6J, M, ref Cichocki et al 2017.
Where [7] appears, read: 10 ppm inhalation, mice, PBPK model estimate, ref Chiu et al 2011.
The mark [8] stands for this setting: 100 mg/kg oral, rat, PBPK model estimate, ref Chiu et al 2011.
Where [9] appears, read: 10 ppm inhalation, rat, PBPK model estimate, ref Chiu et al 2011.
[10] abbreviates: 100 mg/kg oral, PBPK model estimate, ref Chiu et al 2011.
Setting [11] is: 10 ppm inhalation, PBPK model estimate, ref Chiu et al 2011.
[12] abbreviates: mean ± SD, average of all strains, single oral dose 6 mmole/kg.

SMILES strings stand for the structures. Read-outs that look alike come from different tables or passages of the source.

In the case of `OCC(Cl)(Cl)Cl` [TCOH, trichloroethanol], the “AUC0–36 of TCOH compared to that of TCA, brain” value (TCE-treated mice, brain) is 22.7–53.1%. For the setting “TCE-treated mice, kidney”, the “AUC0–36 of TCOH compared to that of TCA, kidney” value is listed as 266–322%. Further, the “tissue in which TCOH is most abundant” value (TCE-treated mice, liver, kidney, brain, lung, serum examined) is on record as “most abundant in kidney”. The “AUC0–36 of TCOH compared to that of TCA, lung” value (TCE-treated mice, lung) is given as 49.8–68.7%. Moreover, the “AUC0–36 of TCOH compared to that of TCA, serum” value (TCE-treated mice, serum) is listed as 35.7–60%.

In the case of `N[C@@H](CSC(Cl)=CCl)C(=O)O` [DCVC, S-(1,2-dichlorovinyl)-cysteine], in the data set on kidney (ref Shirai et al. 2012), the “lowest dose with some adverse kidney effects observable” value is recorded as 1 mg/kg.

For `N[C@@H](CSC(Cl)=C(Cl)Cl)C(=O)O` [TCVC, S-(1,2,2-trichlorovinyl)-L-cysteine], in the data set with kidney (directly administered cysteine conjugates, acute, sub-acute and sub-chronic exposure, ref Birner et al. 1997, Shirai et al. 2012, Vaidya et al. 2003), the “doses at which most studies reported kidney effects” value is given as “above 10 mg/kg”. The “comparative nephrotoxicity of TCVC and DCVC” value in the data set with kidney (equimolar doses compared, ref Birner et al. 1997) is given as “more nephrotoxic than DCVC”.

`ClC(Cl)=C(Cl)Cl` [PCE, tetrachloroethylene]: the “GSH conjugation (%)” value is given as 0.07% in data set [1] (setting [5]); 0.79% in data set [1] (setting [6]); 0.02% in data set [1] (setting [7]); 0.6% in data set [2] (setting [8]); 0.2% in data set [2] (setting [9]); 18% in data set [3] (setting [10]). The “GSH conjugation (%)” value in data set [3] (setting [11]) is recorded as 9.4%. In addition, the “Oxidation to GSH” value in data set [1] (setting [5]) is recorded as 500; in data set [1] (setting [6]) it was 7.5; in data set [1] (setting [7]), 600; in data set [2] (setting [8]), 14.8; in data set [2] (10 ppm inhalation, rat Wistar, M&F, ref Volkel et al 1998), 623.6; in data set [2] (setting [9]) it was 19.5. Besides, the “Oxidation to GSH” value in data set [2] (20 ppm inhalation, rat Wistar, M&F, ref Volkel et al 1998) is on record as 540.6; in data set [2] (40 ppm inhalation, rat Wistar, M&F, ref Volkel et al 1998) it was 316.4; in data set [3] (setting [10]) it was 0.1; in data set [3] (10 ppm inhalation, M&F, ref Volkel et al 1998), 107.7; in data set [3] (setting [11]) it was 0.1; in data set [3] (20 ppm inhalation, M&F, ref Volkel et al 1998) it was 89.1. Besides, the “Oxidation to GSH” value in data set [3] (40 ppm inhalation, M&F, ref Volkel et al 1998) is recorded as 96.3. The “TCA (%), percentage of administered dose excreted in urine” value is listed as 35% in data set [1] (setting [5]); 5.9% in data set [1] (setting [6]); 12% in data set [1] (setting [7]); 8.9% in data set [2] (setting [8]); 3.9% in data set [2] (setting [9]); 1.8% in data set [3] (setting [10]). Further, the “TCA (%), percentage of administered dose excreted in urine” value is on record as 0.2–0.8% in data set [3] (1 ppm inhalation, M, ref Chiu et al 2006); 0.98% in data set [3] (setting [11]); 2% in data set [3] (72 ppm inhalation, M, ref Monster 1979). In data set [1] (Collaborative Cross mouse population, single oral dose of PCE, ref Cichocki et al. 2017b), the “inter-strain variability of TCA levels in liver, GSD” value is on record as 1.64. Moreover, the “exhalation fraction of PCE” value in data set [1] (mice orally dosed with 500 mg/kg 14C-labelled PCE, ref Schumann et al. 1980) is listed as 82.6%. The “flux through oxidation metabolism pathway over that through conjugation” value (across all mouse strains examined) is 26–34 fold. The “overall flux of glutathione conjugation expressed as dose” value (after equimolar treatment of TCE or PCE) was in the range of 2.9 to 4.5 mg/kg. Besides, the “First order rate constant, Elimination T/PCE→” value under setting [12] stood at 0.17 ± 0.04 h⁻¹. In addition, under setting [12], the “First order rate constant, GSH conjugation T/PCE→D/TCVG” value is “(460±230)*10^−6 h^−1”. Under setting [12], the “First order rate constant, Oxidation T/PCE→TCA” value was 0.014 ± 0.003 h⁻¹. Further, the “yield through glutathione conjugation pathway as % of that through oxidative pathway” value (range given for TCE and PCE together, approximately) was 0.033%−3.3. Also, the “portion of the parent compound that undergoes metabolism” value (range over strains) is given as 6.6%–9.7. Further, where the note is “range over strains, model estimate”, the “estimated fraction of the reactive species formation from cysteine conjugates” value is listed as 46.7% to 52.6. In addition, the “fraction of the total administered dose remaining unmetabolized until excretion” value (range over strains, model estimate at steady state) is on record as 90.3% to 93.5. In data set [4] (ref Guha et al. 2012), the “carcinogenicity classification by IARC” value is recorded as “probably carcinogenic to humans”. Further, the “carcinogenicity classification by US EPA” value in data set [4] (ref U.S. EPA 2011a, b) is “likely to be a human carcinogen”.
